Results reported in patent publication US9732047B2, “N-alkoxyamide conjugates as imaging agents” (Lantheus Medical Imaging, Inc., priority 2008, dated 2017).

What was measured:
aorta = conditions: 60 min post injection; for aorta uptake (% ID/g): ApoE mice on high-fat diet 35-42 weeks, 0.3-0.4 mCi/kg bolus via tail vein; for aorta:blood / aorta:heart: ApoE mice, uptake ratio
Experimental: The apolipoprotein E (ApoE) knockout mouse is a model of hypercholesterolemia that develops atherosclerotic lesions in the brachiocephalic artery, the aortic arch and the abdominal aorta. Mice were fed a high-fat diet to accelerate plaque formation and compounds were tested in the mice between 35-42 weeks on diet. Test compounds were administered at 0.3-0.4 mCi/kg to anesthetized mice in a single, bolus injection via the tail vein. Blood samples were collected via the tail between 0-30 min post injection for pharmacokinetic analysis and mice were euthanized by CO2 at 60 min for tissue harvesting. The aorta was first flushed with saline through the left ventricle exiting via the femoral vein then removed from the heart to the renal bifurcation; additional biological samples were also collected (blood, muscle, liver, kidney, bile, urine, heart, femur, reproductive organ, lung, spleen and innominate artery). All samples were weighed and assayed for radioactivity; uptake is expressed as a percentage of injected dose per gram of tissue (% ID/g).

[1] = test system: Aorta bearing atherosclerotic plaque; assay: Ex-vivo blood vessel binding assay; set-up: species or system New Zealand white rabbits; conditions: 153Gd-labeled compound 0.135 μCi in PBS, 2 h at 37° C., plaque-bearing rabbit aorta sections; percentage of initial activity
Experimental: Aorta bearing atherosclerotic plaque was obtained from New Zealand white rabbits that were balloon stripped along the abdominal aorta and placed on a high fat diet (0.5% cholesterol) for 16-22 weeks. Vascular injury was produced with a 4-F Fogarty catheter along the abdominal aorta and right iliofemoral artery. This procedure generates an accelerated complex lesion development with a lipid rich core covered by a fibrous cap in rabbits. Harvested aorta sections (0.5 cm) were incubated with 0.135 μCi of ^153Gd-labeled compound diluted in phosphate buffered saline (450 μL) for 2 h at 37° C. The supernatant was removed and analyzed by HPLC to assay compound stability. The tissue section was then washed with phosphate buffered saline (3×10 mL), then resuspended (10 mL) and incubated at 37° C. an additional 1 h. The supernatant was then removed, the washing process repeated and the tissue finally counted on a gamma counter. The amount of compound bound to the tissue was determined as a percentage of the initial activity according to the following formula: […]

CC(C)C[C@@H]([NH3+])C(=O)NOCc1ccc(CNC(=O)CN(CCN(CC(=O)[O-])CC(=O)[O-])CCN(CC(=O)[O-])CC(=O)[O-])cc1.[153Gd+3] [Example 56]
aorta uptake (% ID/g) (aorta): 8.5 ± 1.8 % ID/g
aorta:blood (aorta): 5.5
aorta:heart (aorta): 21.2

[153Gd+3].[NH3+][C@H](CCc1ccccc1)C(=O)NOCCc1ccc(CNC(=O)CN(CCN(CC(=O)[O-])CC(=O)[O-])CCN(CC(=O)[O-])CC(=O)[O-])cc1 [Example 50]
% bound [1]: 24.2%
aorta uptake (% ID/g) (aorta): 10.4 ± 2.4 % ID/g
aorta:blood (aorta): 3.7
aorta:heart (aorta): 13.5

[153Gd+3].[NH3+][C@H](Cc1ccc(O)cc1)C(=O)NOCc1ccc(CNC(=O)CN(CCN(CC(=O)[O-])CC(=O)[O-])CCN(CC(=O)[O-])CC(=O)[O-])cc1 [Example 63]
% bound [1]: 11.7%
aorta uptake (% ID/g) (aorta): 8.7 ± 0.4 % ID/g
aorta:blood (aorta): 6.0
aorta:heart (aorta): 13.0

[153Gd+3].[NH3+][C@H](Cc1ccc2ccccc2c1)C(=O)NOCc1ccc(CNC(=O)CN(CCN(CC(=O)[O-])CC(=O)[O-])CCN(CC(=O)[O-])CC(=O)[O-])cc1 [Example 57]
% bound [1]: 30.6%
aorta uptake (% ID/g) (aorta): 11.1 ± 0.3 % ID/g
aorta:blood (aorta): 5.0
aorta:heart (aorta): 17.8

[153Gd+3].[NH3+][C@H](CC1CCCCC1)C(=O)NOCCCCCCNC(=O)CN(CCN(CC(=O)[O-])CC(=O)[O-])CCN(CC(=O)[O-])CC(=O)[O-] [Example 42]
% bound [1]: 17.9%
aorta uptake (% ID/g) (aorta): 8.1 ± 1.1 % ID/g
aorta:blood (aorta): 8.0
aorta:heart (aorta): 18.0

[153Gd+3].[NH3+][C@@H](CCc1ccccc1)C(=O)NOCc1ccc(CNC(=O)CN(CCN(CC(=O)[O-])CC(=O)[O-])CCN(CC(=O)[O-])CC(=O)[O-])cc1 [Example 39]
% bound [1]: 15.8%
aorta uptake (% ID/g) (aorta): 6.1 ± 0.4 % ID/g
aorta:blood (aorta): 11.4
aorta:heart (aorta): 13.6

[153Gd+3].[NH3+][C@H](Cc1ccccc1)C(=O)NOCc1ccc(CNC(=O)CN(CCN(CC(=O)[O-])CC(=O)[O-])CCN(CC(=O)[O-])CC(=O)[O-])cc1 [Example 58]
% bound [1]: 7.3%
aorta uptake (% ID/g) (aorta): 6.1 ± 0.2 % ID/g
aorta:blood (aorta): 6.5
aorta:heart (aorta): 17.9

[153Gd+3].[NH3+][C@H](Cc1cc2ccccc2[nH]1)C(=O)NOCc1ccc(CNC(=O)CN(CCN(CC(=O)[O-])CC(=O)[O-])CCN(CC(=O)[O-])CC(=O)[O-])cc1 [Example 61]
% bound [1]: 19.9%
aorta uptake (% ID/g) (aorta): 19.3 ± 0.2 % ID/g
aorta:blood (aorta): 10.9
aorta:heart (aorta): 20.4

[153Gd+3].[NH3+][C@H](CCc1ccccc1)C(=O)NOCCCc1ccc(CNC(=O)CN(CCN(CC(=O)[O-])CC(=O)[O-])CCN(CC(=O)[O-])CC(=O)[O-])cc1 [Example 44]
% bound [1]: 27.3%
aorta uptake (% ID/g) (aorta): 8.4 ± 0.2 % ID/g
aorta:blood (aorta): 3.2
aorta:heart (aorta): 12.5

[153Gd+3].[NH3+][C@H](Cc1ccc(-c2ccccc2)cc1)C(=O)NOCCCCCCNC(=O)CN(CCN(CC(=O)[O-])CC(=O)[O-])CCN(CC(=O)[O-])CC(=O)[O-] [Example 41]
% bound [1]: 28.7%
aorta uptake (% ID/g) (aorta): 2.0 ± 0.1 % ID/g
aorta:blood (aorta): 7.2
aorta:heart (aorta): 20.4

[153Gd+3].[NH3+][C@H](CCc1ccccc1)C(=O)NOc1ccc(CNC(=O)CN(CCN(CC(=O)[O-])CC(=O)[O-])CCN(CC(=O)[O-])CC(=O)[O-])cc1 [Example 47]
% bound [1]: 6.6%
aorta uptake (% ID/g) (aorta): 4.7 ± 0.4 % ID/g
aorta:blood (aorta): 0.7
aorta:heart (aorta): 4.8

CONC(=O)[C@H](N)Cc1ccc(CNC(=O)CN2CCN(CC(=O)[O-])CCN(CC(=O)[O-])CCN(CC(=O)[O-])CC2)cc1.[153Gd+3] [Example 54]
aorta uptake (% ID/g) (aorta): 2.5 ± 0.5 % ID/g
aorta:blood (aorta): 1.2
aorta:heart (aorta): 5.3

CC(C)C[C@@H](N)C(=O)NOCc1ccc(CNC(=O)CN2CCN(CC(=O)[O-])CCN(CC(=O)[O-])CCN(CC(=O)[O-])CC2)cc1.[153Gd+3] [Example 59]
% bound [1]: 5.2%
aorta uptake (% ID/g) (aorta): 8.2 ± 1.3 % ID/g
aorta:blood (aorta): 3.7
aorta:heart (aorta): 15.4

O=C([O-])CN1CCN(CC(=O)[O-])CCN(CC(=O)NCc2ccc(CNC(CCc3ccccc3)C(=O)NOCc3ccccc3)cc2)CCN(CC(=O)[O-])CC1.[153Gd+3] (centres unmarked) [Example 53]
aorta uptake (% ID/g) (aorta): 1.5 ± 0.1 % ID/g
aorta:blood (aorta): 0.8
aorta:heart (aorta): 4.2

[153Gd+3].[NH3+][C@H](CCc1ccccc1)C(=O)NOCCCCCCNC(=O)CN(CCN(CC(=O)[O-])CC(=O)[O-])CCN(CC(=O)[O-])CC(=O)[O-] [Example 45]
% bound [1]: 14.4%
aorta uptake (% ID/g) (aorta): 9.0 ± 0.2 % ID/g
aorta:blood (aorta): 2.1
aorta:heart (aorta): 12.1

[153Gd+3].[NH3+][C@H](Cc1c[nH]c2ccccc12)C(=O)NOCCCc1ccc(CNC(=O)CN(CCN(CC(=O)[O-])CC(=O)[O-])CCN(CC(=O)[O-])CC(=O)[O-])cc1 [Example 43]
% bound [1]: 27.1%
aorta uptake (% ID/g) (aorta): 6.0 ± 1.7 % ID/g
aorta:blood (aorta): 2.7
aorta:heart (aorta): 9.0

CC(C)C[C@@H]([NH3+])C(=O)NOCCCCCCNC(=O)CN(CCN(CC(=O)[O-])CC(=O)[O-])CCN(CC(=O)[O-])CC(=O)[O-].[153Gd+3] [Example 40]
% bound [1]: 7.2%
aorta uptake (% ID/g) (aorta): 3.6 ± 0.3 % ID/g
aorta:blood (aorta): 3.4
aorta:heart (aorta): 8.4

CC(C)C[C@@H]([NH3+])C(=O)NOCCc1ccc(CNC(=O)CN(CCN(CC(=O)[O-])CC(=O)[O-])CCN(CC(=O)[O-])CC(=O)[O-])cc1.[153Gd+3] [Example 49]
% bound [1]: 9.1%
aorta uptake (% ID/g) (aorta): 4.9 ± 0.2 % ID/g
aorta:blood (aorta): 5.5
aorta:heart (aorta): 22.9

CC(C)C[C@@H]([NH3+])C(=O)NOc1ccc(CNC(=O)CN(CCN(CC(=O)[O-])CC(=O)[O-])CCN(CC(=O)[O-])CC(=O)[O-])cc1.[153Gd+3] [Example 46]
% bound [1]: 0.9%
aorta uptake (% ID/g) (aorta): 0.9 ± 0.2 % ID/g
aorta:blood (aorta): 1.1
aorta:heart (aorta): 4.9

N[C@H](Cc1ccc(CNC(=O)CN2CCN(CC(=O)[O-])CCN(CC(=O)[O-])CCN(CC(=O)[O-])CC2)cc1)C(=O)NOCc1ccccc1.[153Gd+3] [Example 55]
aorta uptake (% ID/g) (aorta): 3.0 ± 2.3 % ID/g
aorta:blood (aorta): 1.0
aorta:heart (aorta): 8.8

CONC(=O)C(CCc1ccccc1)NCc1ccc(CNC(=O)CN2CCN(CC(=O)[O-])CCN(CC(=O)[O-])CCN(CC(=O)[O-])CC2)cc1.[153Gd+3] (centres unmarked) [Example 52]
% bound [1]: 6.9%
aorta uptake (% ID/g) (aorta): 6.1 ± 1.2 % ID/g
aorta:blood (aorta): 2.0
aorta:heart (aorta): 9.2
